# Measured values: patent publication USRE36784E, “Chemoprotective isothiocyanates” (The Johns Hopkins University, priority 1997, dated 2000)
# What was measured:
# [1] = tested on: quinone reductase (QR) in Hepa 1c1c7 murine hepatoma cells; assay: Induction of QR (inducer potency, CD value) in Hepa 1c1c7 murine hepatoma cells; format: cell-based
# Description: Assay of Inducer Potency. Inducer activity was measured in Hepa 1c1c7 murine hepatoma cells grown in 96-well microtiter plates (Prochaska and Santamaria, Anal. Biochem. 169:328-336 (1988); Prochaska et al., Proc. Natl. Acad. Sciences USA 89:2394-2398 (1992)). QR activity (based on the formation of the blue-brown reduced tetrazolium dye) was measured with an optical microtiter plate scanner in cell lysates prepared in one plate, and the cell density was determined in the second plate by staining with crystal violet. Quantitative information on specific activity of QR, the inducer potency, and the cytotoxicity of the extract or compound tested is obtained by computer analysis of the absorbances. One unit of inducer activity is defined as the amount that when added to a single microtiter well doubled the QR specific activity. The CD value is the concentration of a compound required to double the quinone reductase specific activity in Hepa 1c1c7 murine hepatoma cells.
# Each of the analogs of sulforaphane was tested for the ability to induce QR in murine hepatoma cells by the assay described in Example 1.
# Analogs were synthesized and tested in the hepatoma cell assay described in Example 1.
# QR (quinone reductase) = assay: Induction of QR in mouse tissues after gavage; format: in vivo, mouse (female CD-1)
# Description: (§1) The compounds were administered to 6week-old female CD1 mice (4 or 5 mice
# (§2) per group) by gavage in indicated single daily doses in 0.1 ml of Emulpho
# (§3) EL 620P (GAF. Linden, NJ) for 5 days. Cytosols were prepared from the
# (§4) tissues 24 hr after the last treatment and assayed for enzyme activities
# (§5) (glutathione Stransferase was measured with 1chloro-2,4-dinitrobenzene).
# (§6) The specific activities (nmol · min^-1 · mg^-1
# (§7) ± SEM) of organs of vehicletreated #control mice were as follows.
# (§8) 54 ± 5.8: GST. 439 ± 34. Data are presented as mean ± SEM.
# [2] = tested on: glutathione S-transferase (GST); assay: Induction of glutathione S-transferase (GST) in mouse tissues after gavage; format: in vivo, mouse (female CD-1)
# Description: as §1, §2, §3, §4, §5, §6, §7, §8
# female CD-1 mice = assay: Toxicity in mice dosed by gavage; format: in vivo, mouse (female CD-1); conditions: compared with sulforaphane and erucin
# Source text: The sulfone (erysolin) was more toxic, but even 5-μmol daily doses for 5 days elevated the specific activities of these enzymes in some tissues examined. We therefore conclude that sulforaphane and its analogues not only induce QR in Hepa 1c1c7 murine hepatoma cells but also induce both QR and glutathione transferase activities in a number of murine organs.
# [3] = 5 μmol per mouse per day, gavage, 5 days, forestomach
# [4] = 5 μmol per mouse per day, gavage, 5 days, glandular stomach
# [5] = 5 μmol per mouse per day, gavage, 5 days, liver
# [6] = 5 μmol per mouse per day, gavage, 5 days, lung
# [7] = 5 μmol per mouse per day, gavage, 5 days, proximal small intestine
# [8] = 5-μmol daily doses for 5 days, some tissues
smiles,measurement,setting,value
CS(=O)(=O)CCCCN=C=S [Erysolin],EC (2-fold QR specific activity),"[1]; Mus musculus, Hepa-1c1c7, read-out: CD value, Table 1, QR induction, Hepa 1c1c7 cells",0.82 µM
same,relative potency as inducers of QR,"[1]; comparison in words, Table 1",equipotent
same,activity as inducers compared with sulforaphane and sulforaphene,[1]; in cell culture,less active
same,"Ratio of specific activities (treated/control), QR, Forestomach",QR (quinone reductase); [3],1.05 ± 0.21
same,"Ratio of specific activities (treated/control), QR, Glandular stomach",QR (quinone reductase); [4],1.57 ± 0.08
same,"Ratio of specific activities (treated/control), QR, Liver",QR (quinone reductase); [5],1.62 ± 0.09
same,"Ratio of specific activities (treated/control), QR, Lung",QR (quinone reductase); [6],1.00 ± 0.11
same,"Ratio of specific activities (treated/control), QR, Proximal small intestine",QR (quinone reductase); [7],1.22 ± 0.20
same,elevation of QR specific activity,QR (quinone reductase); [8],elevated
same,"Ratio of specific activities (treated/control), GST, Forestomach",[2]; [3],1.45 ± 0.15
same,"Ratio of specific activities (treated/control), GST, Glandular stomach",[2]; [4],1.94
same,"Ratio of specific activities (treated/control), GST, Liver",[2]; [5],1.08 ± 0.11
same,"Ratio of specific activities (treated/control), GST, Lung",[2]; [6],1.09
same,"Ratio of specific activities (treated/control), GST, Proximal small intestine",[2]; [7],0.87
same,elevation of glutathione transferase specific activity,[2]; [8],elevated
same,toxicity in mice,female CD-1 mice,more toxic
